{"source": "patent US20250340577A1", "about": "“BETA-LACTOMASE INHIBITORS AND USES THEREOF” (Case Western Reserve University, priority 2021, published 2025)", "key": {"[1]": {"type": "in vivo", "conditions": "for Abdominal tone / Body weight after 1° dose / Body weight after 4° dose / Limb tone / Vocalization: QID q6h; for Piloerection: animals of 4, after 4° dose; for Vocalization: animals of 4", "procedure": "A maximum tolerable dose (MTD) assessment was conducted to evaluate the tolerability of MB076 with meropenem and cilastatin combination. Neutropenic uninfected female ICR mice were used. Meropenem combined with cilastatin was subcutaneously (SC) administered followed by intravenous (IV) administration of MB076 within 10 min. Doses were administered four times (QID) with 6 h intervals (q6h) for one day. Animals were monitored for acute symptoms after the first dose administration and cage side observations were recorded for the subsequent QID doses. Moreover, the body weight of each animal was recorded daily."}, "K. pneumoniae ST258 B5": {"system": "K. pneumoniae ST258 B5", "assay": "MIC with cefepime, agar microdilution, CLSI", "type": "cell-based", "conditions": "compound fixed at 4 ug/ml; KPC-2", "in_short": "(§1)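 Read-out is the cefepime MIC obtained via CLSI agar microdilution, with compound fixed at 4 ug/ml.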"}, "E. coli 29838": {"system": "E. coli 29838", "assay": "MIC with cefepime, agar microdilution, CLSI", "type": "cell-based", "conditions": "compound fixed at 4 ug/ml; CTX-M-14, TEM-1", "in_short": "as §1"}, "[2]": {"system": "E. coli DH10B pBC-SK SHV-2", "assay": "MIC with cefepime, agar microdilution, CLSI", "type": "cell-based", "conditions": "compound fixed at 4 ug/ml", "in_short": "as §1"}, "K. pneumoniae 427": {"system": "K. pneumoniae 427", "assay": "MIC with cefepime, agar microdilution, CLSI", "type": "cell-based", "conditions": "compound fixed at 4 ug/ml; TEM-1, SHV-1, CTX-M-3", "in_short": "as §1"}, "[3]": {"system": "E. coli DH10B pBC-SK KPC-2", "assay": "MIC with cefepime, agar microdilution, CLSI", "type": "cell-based", "conditions": "compound fixed at 4 ug/ml", "in_short": "as §1"}, "[4]": {"conditions": "MEM 500 mg/Kg + cilastatin 200 mg/Kg (SC) + MB076 25 mg/Kg (IV)"}, "[5]": {"conditions": "MEM 500 mg/Kg + cilastatin 200 mg/Kg (SC) + MB076 50 mg/Kg (IV)"}, "[6]": {"conditions": "MEM 1000 mg/Kg + cilastatin 200 mg/Kg (SC) + MB076 25 mg/Kg (IV)"}, "[7]": {"conditions": "MEM 1000 mg/Kg + cilastatin 200 mg/Kg (SC) + MB076 50 mg/Kg (IV)"}, "[8]": {"conditions": "MEM 1000 mg/Kg + cilastatin 200 mg/Kg (SC) + MB076 100 mg/Kg (IV)"}}, "note": "Like-named read-outs stand apart in the source and are kept apart here.", "data": [{"molecule": "Nc1nnc(SCC(=O)NC(Cn2cc(C(=O)O)nn2)B(O)O)s1", "note": "(stereo not drawn) [MB076]", "values": [{"measurement": "Abdominal tone", "setting": "[1]; [4]", "value": "Mild"}, {"measurement": "Body weight after 1° dose", "setting": "[1]; [4]", "value": 23}, {"measurement": "Body weight after 4° dose", "setting": "[1]; [4]", "value": 22}, {"measurement": "Limb tone", "setting": "[1]; [4]", "value": "Mild"}, {"measurement": "Abdominal tone", "setting": "[1]; [5]", "value": "increased"}, {"measurement": "Body weight after 1° dose", "setting": "[1]; [5]", "value": 23}, {"measurement": "Body weight after 4° dose", "setting": "[1]; [5]", "value": 22.2}, {"measurement": "Limb tone", "setting": "[1]; [5]", "value": "Mild"}, {"measurement": "Abdominal tone", "setting": "[1]; [6]", "value": "Mild"}, {"measurement": "Body weight after 1° dose", "setting": "[1]; [6]", "value": 23.2}, {"measurement": "Body weight after 4° dose", "setting": "[1]; [6]", "value": 21.7}, {"measurement": "Limb tone", "setting": "[1]; [6]", "value": "Mild"}, {"measurement": "Abdominal tone", "setting": "[1]; [7]", "value": "Mild"}, {"measurement": "Body weight after 1° dose", "setting": "[1]; [7]", "value": 23}, {"measurement": "Body weight after 4° dose", "setting": "[1]; [7]", "value": 22}, {"measurement": "Limb tone", "setting": "[1]; [7]", "value": "Mild"}, {"measurement": "Abdominal tone", "setting": "[1]; [8]", "value": "Mild"}, {"measurement": "Body weight after 1° dose", "setting": "[1]; [8]", "value": 23}, {"measurement": "Body weight after 4° dose", "setting": "[1]; [8]", "value": 22}, {"measurement": "Limb tone", "setting": "[1]; [8]", "value": "increased and Mild"}, {"measurement": "Acute toxicity or mortality", "setting": "[1]; all tested dose groups, MB076 IV with meropenem + cilastatin SC, QID q6h one day, neutropenic uninfected female ICR mice", "value": "No acute toxicity or mortality was observed"}, {"measurement": "Piloerection", "setting": "[1]; [4]", "value": "4/4 after"}, {"measurement": "Piloerection", "setting": "[1]; [5]", "value": "4/4 after"}, {"measurement": "Piloerection", "setting": "[1]; [6]", "value": "4/4 after"}, {"measurement": "Piloerection", "setting": "[1]; [7]", "value": "4/4 after"}, {"measurement": "Piloerection", "setting": "[1]; [8]", "value": "4/4 after"}, {"measurement": "Vocalization", "setting": "[1]; [4]", "value": "1/4"}, {"measurement": "Vocalization", "setting": "[1]; [5]", "value": "0/4"}, {"measurement": "Vocalization", "setting": "[1]; [6]", "value": "2/4"}, {"measurement": "Vocalization", "setting": "[1]; [7]", "value": "3/4"}, {"measurement": "Vocalization", "setting": "[1]; [8]", "value": "0/4"}, {"measurement": "MIC of cefepime in combination with compound", "setting": "K. pneumoniae ST258 B5", "value": 8, "unit": "µg/mL"}, {"measurement": "MIC of cefepime in combination with compound", "setting": "E. coli 29838", "value": "< 0.25", "unit": "µg/mL"}, {"measurement": "MIC of cefepime in combination with compound", "setting": "[2]", "value": "< 0.25", "unit": "µg/mL"}, {"measurement": "MIC of cefepime in combination with compound", "setting": "K. pneumoniae 427", "value": "< 0.25", "unit": "µg/mL"}, {"measurement": "MIC of cefepime in combination with compound", "setting": "[3]", "value": "< 0.25", "unit": "µg/mL"}]}]}
